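96-well plates; 48 h exposure; 5 concentrations. Endpoints by linear interpolation between flanking doses. Not reached: highest tested concentration assigned. Here, GI50 denotes the concentration required for 50% inhibition of growth. TGI: total growth inhibition.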
Legend:
Experiment in all cases: growth of human tumour cells (NCI), 48 h
HCT-116 colon = tested on: HCT-116 colon
OVCAR-3 ovarian = tested on: OVCAR-3 ovarian
OVCAR-4 ovarian = tested on: OVCAR-4 ovarian
SK-MEL-28 melanoma = tested on: SK-MEL-28 melanoma
SNB-75 CNS = tested on: SNB-75 CNS
TK-10 renal = tested on: TK-10 renal
UACC-257 melanoma = tested on: UACC-257 melanoma

SMILES | TGI (HCT-116 colon) | TGI (OVCAR-3 ovarian) | TGI (OVCAR-4 ovarian) | TGI (SK-MEL-28 melanoma) | TGI (SNB-75 CNS) | TGI (TK-10 renal) | TGI (UACC-257 melanoma) | GI50 (HCT-116 colon) | GI50 (OVCAR-3 ovarian) | GI50 (OVCAR-4 ovarian) | GI50 (SK-MEL-28 melanoma) | GI50 (SNB-75 CNS) | GI50 (TK-10 renal) | GI50 (UACC-257 melanoma)
CCN(CC)c1ccc2c(c1)Nc1cc(=C(C#N)C#N)c3ccccc3c1=N2 | > 100 µM | > 100 µM | > 100 µM | > 100 µM | > 100 µM | > 100 µM | > 100 µM | – | – | – | – | – | – | –
CCOC(=O)C(=O)Nc1c(C(C)C)cccc1C(C)C | > 100 µM | > 100 µM | > 100 µM | > 100 µM | > 100 µM | > 100 µM | > 100 µM | – | – | – | – | – | – | –
Cc1c2cc[n+](C)cc2c(C)c2c1[nH]c1ccc(O)c(OCC(F)(F)F)c12 | 12.1 µM | 7.4 µM | 12.8 µM | 16 µM | 1.35 µM | 29.1 µM | 18.9 µM | – | – | – | – | – | – | –
O=[N+]([O-])c1ccc2c(c1)[O][Sn]([I])([I])[O]2 | > 100 µM | > 100 µM | > 100 µM | > 100 µM | > 100 µM | > 100 µM | > 100 µM | > 100 µM | > 100 µM | > 100 µM | 69.6 µM | > 100 µM | > 100 µM | > 100 µM
C[C-](O)O.O/C(=C\[C-](O)c1ccccc1)c1ccccc1.O/C(=C\[C-](O)c1ccccc1)c1ccccc1.[Nd+3] (stereo not given) | 16.5 µM | 27.4 µM | > 100 µM | 44.5 µM | 6.35 µM | 94.2 µM | 42.3 µM | 4.24 µM | 0.363 µM | 15.9 µM | 12.7 µM | 1.77 µM | 20.9 µM | 15.5 µM
CN=C1SC(=Nc2ccc(N(C)C)cc2)N1C | > 100 µM | > 100 µM | > 100 µM | > 100 µM | 49.1 µM | > 100 µM | > 100 µM | – | – | – | – | – | – | –
CCOC(=O)[C@H]1Nc2ccc(OC)cc2C2c3ccccc3CC21 (stereo not given in full) | > 100 µM | > 100 µM | > 100 µM | > 100 µM | > 100 µM | > 100 µM | > 100 µM | – | – | – | – | – | – | –
COc1ccc2c(c1)[n+]([O-])c(/C(C)=N/NC(=O)CC#N)c[n+]2[O-] | > 100 µM | > 100 µM | > 100 µM | > 100 µM | > 100 µM | > 100 µM | > 100 µM | – | – | – | – | – | – | –
